Entries after “also recorded” stand apart in the source; their conditions may differ.
Experiments:
claudin-5 = experiment: Claudin-5 expression in retina after siRNA injection (Western blot, retinal flatmounts); format: in vivo, mice
[1] = MRI blood flow/volume (mean transit time, capillary transit time) in brain after claudin-5 siRNA; format: in vivo, mice; settings: 24 and 48 hours post-high volume tail vein injection; up to 8 animals per group
Description: 48 hours post-delivery of siRNA targeting claudin-5 or a non-targeting siRNA, a solution containing Gd-DTPA injected to the claudin-5 suppressed mice. Gd-DTPA was injected in the tail vein to assess whether Gd-TPA would permeate across the BBB. Following injection of siRNA and using appropriate controls, BBB integrity to a molecule of 742 Daltons (Gd-DTPA) was assessed via MRI, using a dedicated small rodent Bruker BioSpec 70/30 (i.e. 7 T, 30 cm bore) with an actively shielded USR Magnet. Mice were anaesthetised with isofluorane, and physiologically monitored (ECG, respiration and temperature) and placed on an MRI-compatible support cradle, which has a built-in system for maintaining the animal's body temperature at 37° C. The cradle was then positioned within the MRI scanner. Accurate positioning is ensured by acquiring an initial rapid pilot image, which is then used to ensure the correct geometry is scanned in all subsequent MRI experiments. […] Statistical analysis of all densitometric results of combined regions of the Cerebellum, Hippocampus and Cortex was performed using ANOVA, with significance represented by a P value of ≦0.05, and results are presented both graphically and in a quantitative image depicting the rate of Gd-DTPA deposition within the brain. […]
This is calculated from the first moment or mean of the curve. […]

BRB = BRB permeability to Hoechst (562 Da), retinal cryosections and flatmounts; format: in vivo, C57/Bl6 mice
Description: In order to determine the permeability of brain and retinal microvessels to a molecule of 562 Daltons, mice were perfused through the left ventricle with 500 μl/g body weight of PBS containing 100 μg/ml Hoechst stain H33342 (Sigma Aldrich, Ireland) and 1 mg/ml FITC-Dextran-4 (FD-4) 24, 48, 72 hours and 1 week post-hydrodynamic delivery of claudin-5 siRNA. Following perfusion, the whole brain was dissected and placed in 4% PFA pH 7.4 overnight at 4° C. and subsequently washed 4×15 mins with PBS. Brains were then embedded in 4% agarose and 50 μm sections were cut using a Vibratome®. Whole eyes were removed and fixed with 4% PFA, and following washing with PBS and cryoprotection using a sucrose gradient, 12 μm cryosections were cut using a cryostat. Following analysis of retinal cryosections with an Olympus FluoView™ FV1000 Confocal microscope, images were oriented correctly using Adobe® Photoshop®.

claudin-1 = experiment: Claudin-1 expression following suppression of claudin-5 (Western blot, double immunostaining); format: in vivo, C57/Bl6 mice
BBB = experiment: Assessment of BBB integrity by perfusion of biotinylated tracer EZ-Link Sulfo-NHS-Biotin (443 Da); format: in vivo, C57/Bl6 mice
Description: Following RNAi-mediated ablation of transcripts encoding claudin-5, a tracer molecule was used to determine the extent to which the TJ's of the BBB had been affected. The biotinylated reagent EZ-Link™ Sulfo-NHS-Biotin (Pierce) (1 ml/g body weight of 2 mg/ml EZ-Link™ Sulfo-NHS-Biotin, 443 Da) was perfused for 5 minutes through the left ventricle of mice 24, 48, 72 hours and 1 week post-hydrodynamic delivery of claudin-5 siRNA. Following perfusion with the tracer molecule, the whole brain was dissected and placed in 4% PFA pH 7.4 overnight at 4° C. and subsequently washed 4×15 mins with PBS. Following cryoprotection with sucrose, frozen sections were cut on a cryostat at −20° C. and incubated with streptavidin conjugated to the fluorescent probe FITC. This allowed for the assessment of leakage of the biotinylated reagent of molecular weight 443 Da from the microvessels of the brain. All sections were counterstained with 4′,6-diamidine-2-phenylindole-dihydrochloride (DAPI; Sigma Aldrich, Ireland) for 30 seconds at a dilution of 1:5000 of a stock 1 mg/ml solution, and sections were visualized using an Olympus FluoView™ FV1000 Confocal microscope.

For “claudin-5 siRNA: siRNA, sense CGUUGGAAAUUCUGGGUCUUU (SEQ ID NO: 1), antisense AGACCCAGAAUUUCCAACGUU (SEQ ID NO: 2) (listed as RNA, chemistry not given here)”, the “claudin-5 expression in retinal flatmounts, immunohistochemistry” value (claudin-5; 24, 48 and 72 hours post injection, vs non-targeting siRNA) was “decreased localisation of claudin-5 at the periphery of endothelial cells”, the “claudin-5 expression in retinal protein lysates, Western blot” value (claudin-5; 48 hours post injection) was “decreased expression” and the “blood flow / blood volume in major brain vessels and capillaries (MTT, CTT), MRI” value [1] was “no significant differences in blood flow; also recorded: not observing any difference in blood flow or blood volume”. The “Hoechst staining in retinal flatmounts” value (BRB; 24 and 48 hours post injection) was “stain extravascular nuclei”, the “extravasation of Hoechst in 12 μm retinal cryosections” value (BRB; 24 hours post delivery) was “Inner Nuclear Layer (INL) appearing stained” and the “extravasation of Hoechst in 12 μm retinal cryosections” value (BRB; 48 hours post delivery) was “distinct Outer Nuclear Layer (ONL) staining”. For the same substance, the “extravasation of Hoechst H33342 from retinal microvessels, retinal cryosections” value (BRB; up to 48 hour post-delivery) was “staining the Inner Nuclear Layer (INL) and Outer Nuclear Layer (ONL) of the retina”, the “claudin-1 (23 kDa) expression, Western blot” value (claudin-1; 24, 48, 72 hours and 1 week post delivery of claudin-5 siRNA) was “no changes at any time points” and the “claudin-1 expression, double immunostaining in brain cryosections” value (claudin-1; each time point post-injection of claudin-5 siRNA) was “remain similar to those observed in the control groups”. For the same substance, the “BBB permeability to EZ-Link Sulfo-NHS-Biotin (443 Da)” value (“BBB permeability” below) (BBB; 1 week post-injection) was “no evidence for BBB compromise; also recorded: failed to deposit in the parenchyma; also recorded: did not allow for the passage; also recorded: no longer crossed the BBB”, the “BBB permeability” value (BBB; 1 week post-injection, listed as siRNA targeting claudin-5) was “did not deposit in the parenchyma” and the “BBB permeability” value (BBB; 24 hours post-injection, perfusion 5 minutes, listed as siRNA targeting claudin-5) was “diffuse and outside of the microvessels; also recorded: increase in permeability; also recorded: infiltration of the molecule into the parenchyma of the brain”. For the same substance, the “BBB permeability” value (BBB; 48 hours post-injection) was “abundant in the brain parenchyma”, the “BBB permeability” value (BBB; 48 hours post-injection, listed as siRNA targeting claudin-5) was “very distinct; also recorded: detected in abundance” and the “BBB permeability” value (BBB; 72 hours post-delivery) was “permeability was still evident; also recorded: still evidenced”. The “BBB permeability” value (BBB; 72 hours post-delivery, listed as siRNA targeting claudin-5) was “significant compromise in barrier function; also recorded: crossed the BBB”.

From patent publication US9540649B2, “Method for opening tight junctions” (The Provost, Fellows and Scholars of the College of the …, priority 2007, dated 2017)
